Results reported in patent US7585891B2, “Pesticidal (dihalopropenyl)phenylalkyl substituted benzodioxolane and benzodioxole derivatives” (FMC Corporation, priority 2003, dated 2009).

What was measured:
[1] = tested on: tobacco budworm (Heliothis virescens [Fabricius]); assay: surface-treated diet test against tobacco budworm; format: in vivo; settings: 0.25 millimolar on the surface of the diet, second instar larvae, five-day exposure; for Percent Growth Inhibition: insect weight relative to untreated controls
Text: The test compounds of formula I are identified by numbers that correspond to those in Table 1.

tobacco budworm = assay: foliar treated test against tobacco budworm on chick pea plants; format: in vivo, Heliothis virescens; settings: 96 hour exposure, dead plus moribund insects
Procedure: Certain compounds of formula I were tested against tobacco budworm on plant foliage. The foliar treated test against tobacco budworm were conducted in the following manner:
Nine-to-ten day-old chick pea plants (Cicer arietinum) were sprayed at 15 psi to runoff on both upper and lower leaf surfaces with solutions of test compound to provide application rates as high as 1000 ppm of test chemical. The solvent used to prepare the solutions of test compound was 10% acetone or methanol (v/v) and 0.1% of the surfactant octylphenoxypolyethoxyethanol in distilled water. Four replicates, each containing one chick pea plant, for each rate of application of test compound were sprayed. The treated plants were transferred to a hood where they were kept until the spray had dried.
The four chick pea plants for each replicate treated with test compound as described above were removed from their pots by cutting the stems just above the soil line. The excised leaves and stems from the four plants in each replicate were placed in individual 237 mL (8-ounce) paper cups, which contained a moistened filter paper. Five second-instar tobacco budworm (7 days old) were counted into each cup, taking care not to cause injury. An opaque plastic lid was placed on each cup, which was then held in a growth chamber for a 96 hour exposure period at 25° C., 50% relative humidity and photo-period of 12 hours light and 12 hours dark. At the end of the 96 hour exposure period the cups were opened, and the numbers of dead, moribund, and live insects were counted. Using the insect counts, the efficacy of the test compound was expressed in percent control. Percent control is derived from the total number of dead insects (TD) plus the total number of moribund insects (TM) as compared to the total number of insects (TI) in the test:
The condition of the test plants was also observed for phytotoxicity and for reduction of feeding damage as compared to an untreated control.

[2] = 30 ppm foliar spray on chick pea
[3] = 10 ppm foliar spray on chick pea

## FC1(F)Oc2ccc(OCCCCOc3c(Cl)cc(OCC=C(Cl)Cl)cc3Cl)cc2OC1(F)F [Compound 9, 5-(3,3-Dichloroprop-2-enyloxy)-1,3-dichloro-2-[4-(2,2,3,3-tetrafluorobenzo[3,4-e]1,4-dioxan-6-yloxy)butoxy]benzene]
[1]
  Percent Mortality: 100%
  Percent Growth Inhibition: 100%
Tobacco budworm; [2]
  Percent Control: 100%

## CC1(C)Oc2cccc(OCCCCOc3c(Cl)cc(OCC=C(Cl)Cl)cc3Cl)c2O1 [Compound 2, 5-(3,3-Dichloroprop-2-enyloxy)-2-[4-(2,2-dimethylbenzo[d]1,3-dioxolan-4-yloxy)butoxy]-1,3-dichlorobenzene]
[1]
  Percent Growth Inhibition: 100%
Tobacco budworm; [3]
  Percent Control: 85%
Tobacco budworm; [2]
  Percent Control: 100%

## CC1(C)Oc2ccc(OCCCCOc3c(Cl)cc(OCC=C(Cl)Cl)cc3Cl)cc2O1 [Compound 4, 5-{4-[4-(3,3-dichloroprop-2-enyloxy)-2,6-dichlorophenoxy]butoxy}-2,2-dimethylbenzo[d]1,3-dioxolane]
[1]
  Percent Growth Inhibition: 100%
Tobacco budworm; [3]
  Percent Control: 83%
Tobacco budworm; [2]
  Percent Control: 100%

## CC1(C)Cc2cc(Cl)cc(OCCOc3c(Cl)cc(OCC=C(Cl)Cl)cc3Cl)c2O1 [Compound 1]
Tobacco budworm; [2]
  Percent Control: 70%
